Source: US11504399B2, “Combination therapy for a stable and long term engraftment using specific protocols for T/B cell depletion” (Yeda Research and Development Co. Ltd., priority 2011, dated 2022)
Where two headings read alike, the source gives them in different places.

Experiments:
[1] = test system: allogeneic recipients (C3H/Hen) of Balb/c-Nude BM cells; details: for donor type chimerism expressed: regular dose 5×10^6 T cell depleted BM, TCD, monohydrate
From the text: Mice used in these studies were 6-12 week old female mice. Balb/c-Nude (H-2d) and C3H/Hen (H-2k) were purchased from Harlan Israel (Rehovot, Israel). All mice were kept in small cages (5 animals in each cage) and fed sterile food and acid water. These studies were approved by the Weizmann Institute of Science, Institutional Animal Care and Use Committee.
(§1) Low (5×10^6) and high dose (25×10^6) Balb/c-Nude BM cells (providing a source of BM depleted of T cells) were transplanted into allogeneic recipients (C3H/Hen) on day 0 following in-vivo T cell debulking (TCD) with anti-CD4 (clone GK1.5) and anti-CD8 (clone 53.6.72) antibodies (300 μg each; Bio X Cell, NH, USA) delivered on day −6, and exposure to 2.0 Gy total body irradiation (TBI) on day −1. High dose Cyclophosphamide (CY, 100 mg/kg, Baxter Oncology, Germany) was administered on days +3 and +4 post transplant and donor type chimerism was evaluated 35 and 95 days post transplant using fluorescein anti-host and donor H-2 antibodies (e.g. FlTC labeled anti-H-2D^d antibody specific for donor type cells and PE labeled anti-H-2K^k antibody specific for host type cells).
Recipient mice (C3H/Hen) were treated with a conditioning protocol prior to transplantation of a T cell depleted bone marrow transplant. Specifically, mice were in-vivo treated with T cell debulking (TCD) using anti-CD4 and anti-CD8 antibodies delivered on day −6 and by exposure to 2.0 Gy total body irradiation (TBI) on day −1. Next, low (5×10^6) or high dose (25×10^6) Balb/c-Nude BM cells (providing a source of BM depleted of T cells, as Nude mice have miniscule numbers of mature T cells) were transplanted into allogeneic recipients (C3H/Hen) on day 0. High dose cyclophosphamide (CY, 100 mg/kg) was administered on days +3 and +4 post transplant. Evaluation of bone marrow cell engraftment was evaluated by donor type chimerism at 35 and 95 days post transplant.
as §1, with “High” for “Low (5×10^6) and high”, “different doses of irradiation ranging from 1 to 3.5” for “2.0”, “TBI” for “total body irradiation (TBI)”, “30” for “35 and 95”
High dose Cyclophosphamide (CY) was administered on days +3 and +4 post transplant and donor type chimerism was evaluated at 30 days post transplant.
as §1, with “High dose” for “Low (5×10^6) and high dose”, “−1. Different doses of” for “−1. High dose”, “mg/kg, 125 mg/kg or 150 mg/kg,” for “mg/kg,”, “Germany) were” for “Germany) was”, “evaluated 30” for “evaluated 35 and 95”

[2] = test system: C3H/Hen recipient mice with Balb/c and C57BL/6 skin grafts
Experimental: Donor (Balb/c) and 3rd party (C57BL/6) skin grafts were transplanted to the mixed chimeric recipients as described above [i.e. to those mice which were previously transplanted with mega dose (25×10^6) T cell depleted BM and were treated with high dose CY] and to the recipient mice that were inoculated with a regular (5×10^6) T cell depleted BM cell dose and were treated with high dose CY.
Tolerance induction was measured by transplantation of donor (Balb/c) and 3rd party (C57BL/6) skin grafts to the mixed chimeric recipients that were transplanted with mega dose (25×10^6) T cell depleted BM and were treated with high dose CY (as described above), in comparison to the recipients that were inoculated with a regular (5×10^6) T cell depleted BM cell dose (as described above).

**Q.** For `O.O=P1(N(CCCl)CCCl)NCCCO1` (stereo not drawn) [CY, 2-[bis(2-chloroethyl)amino]tetrahydro-2H-1,3,2-oxazaphosphorine 2-oxide monohydrate], which mixed chimerism ([1]; 5×10^6 T cell depleted BM and CY, 180 and 225 days post transplant) is on record?
**A.** did not exhibit mixed chimerism

**Q.** And the “percentage of chimeric mice” value ([1]; 25×10^6 BM, 1.0 Gy TBI, CY 100 mg/kg days +3 and +4, 30 days post transplant (5/6))?
**A.** 83%

**Q.** What about the “percentage of chimeric mice” value ([1]; 25×10^6 BM, 2 Gy TBI, CY 100 mg/kg days +3 and +4, 30 days post transplant (13/15)) of the same compound?
**A.** 87%

**Q.** And the chimeric recipient mice ([1]; 25×10^6 BM, 2.5, 3 or 3.5 Gy TBI, CY 100 mg/kg days +3 and +4, 30 days post transplant)?
**A.** 6/6

**Q.** What about the “effect of depletion of CD8+ cells from the BM preparation on level of chimerism” value ([1]; 25×10^6 CD8 depleted vs non-depleted Balb/c-Nude BM, 2 Gy TBI, CY 100 mg/kg days +3 and +4, 30 days) of the same compound?
**A.** did not have any adverse impact

**Q.** And the “number of donor type chimeric recipients and level of donor chimerism” value ([1]; 25×10^6 T cell depleted BM and CY, follow-up 180 and 225 days post transplant)?
**A.** remained unchanged

**Q.** And the “mice with durable mix chimerism” value ([1]; 25×10^6 T cell depleted BM, TCD day −6, 2 Gy TBI day −1, CY 100 mg/kg days +3 and +4, day 35 and day 95)?
**A.** 4 out of 7

**Q.** And the “effect of increasing CY dose on chimerism” value ([1]; CY 125 mg/kg or 150 mg/kg compared to 100 mg/kg, 25×10^6 BM, 2 Gy TBI, 30 days)?
**A.** did not provide a significant enhancement of chimerism

**Q.** And the “donor type chimerism expressed” value ([1]; 2 Gy TBI, CY 100 mg/kg days +3 and +4, day 35 and day 95, listed as cyclophosphamide)?
**A.** none

**Q.** And the “donor type chimerism expressed” value ([1]; 2 Gy TBI, CY 100 mg/kg days +3 and +4, day 35 and day 95)?
**A.** did not exhibit donor type chimerism

**Q.** And the skin graft outcome ([2]; 5×10^6 T cell depleted BM cells and CY)?
**A.** rejected both the donor and 3rd party skin grafts

**Q.** And the “chimeric mice that accepted the donor graft and rejected the 3rd party skin grafts” value ([2]; 25×10^6 T cell depleted BM, high dose CY days +3 and +4)?
**A.** three out of 4
